# According to patent publication US20250375450A1, “SMARCA2/4 INHIBITION AS A STRATEGY TO TREAT TUMORS THAT HARBOR ABERRANT BAF ASSEMBLIES” (BOARD OF REGENTS, THE UNIVERSITY OF TEXAS SYSTEM, priority 2022, published 2025):
# Experiments:
# Type in all cases: cell-based
# [1] = system: RH41 (rhabdomyosarcoma) cells; test: Apoptosis, IncuCyte Caspase-3/7 green reagent
# Experimental: Referring to FIG. 11A and FIG. 11B, RH4 (FIG. 11A) and ES3 (FIG. 11B) cells were treated with the indicated concentrations of BAF-X-1 or DMSO in triplicate and apoptosis was detected using the IncuCyte Caspase 3/7 green dye (Sartorius). Brightfield and green fluorescence images were captured every 2 hours from 4 fields per well on the IncuCyte live cell imager. The proportion of caspase positive (green) cells relative to % confluence of the well was calculated on the IncuCyte software and plotted against time. Referring to FIG. 11C and FIG. 11D, RH41 cells were treated with 7.5 μM AT-301 (FIG. 11D) or DMSO (FIG. 11C) for 24 hours, harvested with accutase, washed, and fixed in 70% ethanol. They were subsequently stained with propidium iodide/RNase and fluorescence was analyzed on BD flow cytometer. Resulting data was analyzed using FlowJo software.
# The medium was then replaced with fresh medium containing dilutions of the compound (AT-301) or DMSO (as a negative control), and 1× IncuCyte Caspase-3/7 green reagent (Sartorius) and proliferation/apoptosis was measured on IncuCyte live-cell imaging system. The treated cells were imaged every (2/4) hours and four fields from each well were imaged for analysis.
# [2] = system: FLI1 expression in ES7 cells; test: Immunoblot of oncogenic transcription factor levels; conditions: 4 and 12 hrs of treatment
# Source text: (§1) FIG. 12A-D show representative data illustrating that the assembly of BAF complex is perturbed by AT-301 inhibitor without perturbing oncogenic fusion protein levels. Referring to FIG. 12A and FIG. 12B, immunoblots of RH41 (FIG. 12A) and ES7 (FIG. 12B) cells after 4 and 12 hrs of treatment with AT-301 or DMSO. FOXO1 and FLI1 expression remains unchanged upon AT-301 treatment. Referring to FIG. 12C and FIG. 12D, gel filtration chromatography of ES3 (FIG. 12C) and RH41 (FIG. 12D) cell nuclear lysates after BAF-X-1 treatment are shown. […]
# (§2) Next, whether the levels of oncogenic transcription factors in RH41 and ES7 cells change upon treatment with AT-301 was tested. Harvested cells were lysed in NP-40 lysis buffer (Thermo Scientific, J60766) supplemented with protease and phosphatase inhibitor (Halt Protease and phosphatase inhibitor cocktail (Thermo Scientific). Total protein was quantified using Bradford assay (Biorad), and 20 μg of it was denatured and separated on pre-cast tris-acetate or tris-glycine gels (Invitrogen). The protein was then transferred to nitrocellulose membranes (Cytiva) and subsequently probed using primary and secondary antibodies. The signal was detected using Clarity and Clarity Max ECL substrates (Biorad) and imaged on Biorad ChemiDoc).
# [3] = system: FOXO1 expression in RH41 cells; test: as above; conditions: 4 and 12 hrs of treatment
# Source text: as §1, §2
smiles,measurement,setting,value
"Clc1ccc(CNc2nc(NC3CCCC3)nc3ccccc23)cc1Cl [AT-301, N^2-cyclopentyl-N^4-(3,4-dichlorobenzyl)quinazoline-2,4-diamine]",Apoptosis (caspase 3/7),[1],induces apoptosis
same,Expression of oncogenic transcription factor (FLI1),[2],does not alter the expression
same,Expression of oncogenic transcription factor (FOXO1),[3],does not alter the expression
